Each structure is given as a SMILES string. Structures can show the parent of a compound that is named as a salt.

For assay [1], the system named is gastric secretion in pylorus-ligated Sprague-Dawly rats. Nature of the assay: Inhibition of gastric secretion (pylorus-ligated rats, Shay method). Particulars: 20 mg/kg intraduodenally, 5 hours; for Relative conc.: gastric juice acidity relative to omeprazole, equation (II); for Relative volume: gastric juice amount relative to omeprazole, equation (I); for Relative Acid Output: total acid output relative to omeprazole, equation (III). It counts as in vivo. The procedure:
Test 2: Inhibition of gastric secretion
In accordance with the method disclosed in Shay, H., et al., Gastroenterology 5 43-61(1945), Test 2 was carried out.
Sprague-Dawly rats having a body weight of 170±10 g were divided into 3 groups(n=5) and deprived of food for 24 hours before the experiment with free access to water. Under ether anesthesia, the abdomen was incised, and the pylorus was ligated. As a comparative group, Group 1 was administered intraduodenally in a volume of 0.5 ml/200 g of 30% aqueous polyethylene glycol 400 solution. Groups 2 and 3 were administered intraduodenally with the compound of Example and omeprazole, respectively, each of which was suspended in 30% aqueous polyethylene glycol 400 solution at a concentration of 20 mg/kg. After closing the abdominal cavity, the rats were placed for 5 hours and then killed by cervical dislocation. The stomach was extracted to obtain gastric juice.
Tne gastric juice was centrifuged at 1,000 g to remove precipitates. The amount and acidity of the gastric juice were measured. Relative volumes, relative acid concentrations and relative acid outputs of the test compounds were calculated from equations(I), (II) and (III) and the results are shown in Table 2.
Relative volume=(the average amount of gastric juice of Group 1—the average amount of gastric juice of Group 2)/(the average amount of gastric juice of Group 1−the average amount of gastric juice of Group 3)—(I)
Relative acid concerntration=(the average acidity of Group 1—the average acidity of Group 2)/(the average acidity of Group 1—the average acidity of Group 3)—(II)
Relative acid output (the total amount of acid output of Group 1—the total amount of acid output of Group 2)/(the total amount of acid output of Group 1—the total amount of acid output of Group 3)—(m)

The target in assay [2] is proton pump (H+/K+-ATPase) (UniProt P19156). Nature of the assay: Inhibition of proton pump (H+/K+-ATPase activity). Type of assay: biochemical. Set-up: Effect ratio. Particulars: relative to omeprazole IC50. On the procedure: (§1) Test 1: Inhibition of proton pump (H^+/K^+-ATPase activity)
(§2) A proton pump enzyme was prepared by the same method as in the Experiment 1-1 of WO 94/14795. Further, the inhibitory effect of proton pump activity was measured by the same method as in Experiment 1-2 of WO 94/14795.
(§3) Namely, the proton pump activity stimulated by Mg^++ was used as a negative comparative group, and the activity stimulated by Mg^++ and K^+ was used as a positive comparative group. The comparative compound was omeprazole.
(§4) Test tubes were divided into 4 groups: Group 1 as negative comparative group(n=3), Group 2 as positive comparative group(n=3), Group 3(n=5×2) to be administered with the compound of the present invention and Group 4(n=5×2) to be administered with the comparative compound.
(§5) The inhibitory effects of Groups 3 and 4 on proton pump activity were measured by employing the compound prepared in Examples and omeprazole, respectively, each of which was dissolved in dimethylsulfoxide at 5 different concentrations.
(§6) To each of Groups 1, 2, 3 and 4 were added 100 μl of magnesium chloride(40 mM) dissolved in 40 mM Tris-HCI buffer(ph 6.0) and 100 μg of the enzyme source. The 50 μl of potassium chloride(50 mM) and 50 μl of ammonium chloride(6 mM) dissolved in 40 mM Tris-HCl buffer(pH 6.0) were added to all groups except for group 1.
(§7) 10 μl of dimethylsulfoxide was added to each of Groups 1 and 2; and to Group 3 was added 10 μl of dimethylsulfoxide solution prepared by dissolving compound of EXAMPLE at 5 different concentration(n=5×2). To Group 4, 10 μl of the solution prepared by dissolving omeprazole in dimethylsulfoxide at 5 different concentration(37.6, 21.4, 12.2, 7.0 and 4.0 μM) was added(n=5×2). 40 mM Tris-HCI buffer(pH=6.0) was added thereto so as to make the total volume 400 μl.
(§8) Thereafter, the test tube of each Group were placed at 37° C. for 30 minutes for the preincubation. 100 μl ATP solution (6.6 mM) was added until the reaction volume became 500 μl. After the reaction was carried out at 37° C. for 30 minutes, 25% cold trichloroacetic acid was added to terminate the enzyme reaction. The released inorganic phosphate was measured by an automatic analyzer(Express 550, coming).
(§9) The difference between Group 1 and Group 2 represents the proton pump activity activated by K^+ only. The IC50s of Group 3 and 4 were calculated from Litchfield-wilcoxon equation[see, e.g., J. Pharrnacol. Exp. Ther., 96, 99(1949)]. The concentrations of the test compounds inhibiting 50% of the proton pump activity are represented as IC50 in Table 1.

Assay [3] shares this target. Briefly: Inhibition of proton pump (H+/K+-ATPase activity). Type of assay: biochemical. Set-up: other: K+-stimulated proton pump activity, pH 6.0, 37°. The settings on record: K+-stimulated proton pump activity, pH 6.0, 37° C., 30 minutes preincubation; read-out: IC50 (concentration inhibiting 50% of the proton pump activity). On the procedure: as §1, §2, §3, §4, §5, §6, §7, §8, §9

As to `C=CCNc1nc(C)c(C)c(N2CCc3ccccc3C2)n1` [Example 2, 5,6-dimethyl-2-(3-allylamino)-4-(1,2,3,4-tetrahydroisoquinolin-2-yl)pyrimidine hydrochloride], in assay [1], the Relative conc. was 0.57, the Relative volume worked out at 0.69 and the “Relative Acid Output” value was 0.70. Also, the Effect ratio in assay [2] is on record as 1.4. The IC50 in assay [3] is 7850 nM.
`Cc1nc(Nc2ccc(F)cc2)nc(N2CCc3cc(OC(=O)c4ccc([N+](=O)[O-])cc4)ccc3C2C)c1C` (stereo not drawn) [Example 107, 5,6-diinethyl-2-(4-fluorophenylamino)-4-{1-methyl-6-(4-nitrobenzoyloxy)-1,2,3,4-tetrahydroisoquinolin-2-yl}pyrimidine]: in assay [1], the Relative conc. was 0.56, the Relative volume is reported as 0.62 and the “Relative Acid Output” value was found to be 0.73.
As to `Cc1nc(Nc2ccc(F)cc2)nc(N2CCc3cc(O)ccc3C2C)c1C.Cl` (stereo not drawn) [Example 36, 5,6-dimethyl-2-(4-fluorophenylamino)-4-(1-methyl-6-hydroxy-1,2,3,4-tetrahydroisoquinolin-2-yl)pyrimidine hydrochloride], in assay [1], the Relative conc. came out at 1.08, the Relative volume was 1.05 and the “Relative Acid Output” value stood at 1.15. Moreover, in assay [2], the Effect ratio is 35.8. Besides, the IC50 in assay [3] was found to be 310 nM.
Regarding `COCc1nc(Nc2ccccc2)nc(N2CCc3ccccc3C2C)c1C.Cl` (stereo not drawn) [Example 31, 6-methoxymethyl-5-methyl-2-phenylamino-4-(1-methyl-1,2,3,4-tetrahydroisoquinolin-2-yl)pyrimidine hydrochloride], in assay [1], the Relative conc. worked out at 0.97, the Relative volume worked out at 1.06 and the “Relative Acid Output” value is recorded as 1.01. For the same compound, the Effect ratio in assay [2] is recorded as 4.3. In addition, the IC50 in assay [3] was 2560 nM.
Consider `Cc1c(COC(=O)CN2CCOCC2)nc(Nc2ccc(F)cc2)nc1N1CCc2ccccc2C1C.Cl.Cl` (stereo not drawn) [Example 175, 5-methyl-6-(4-morpholineacetoxymethyl)-2-(4-fluorophenylamino)-4-(t1-methyl-1,2,3,4tetrahydroisoquinolin-2-yl)pyrimidine dihydrochloride], for which, in assay [1], the Relative conc. is reported as 0.30, the Relative volume came out at 0.87 and the “Relative Acid Output” value is recorded as 0.79.
Consider `Cc1c(COC(=O)CNC(=O)OC(C)(C)C)nc(Nc2ccc(F)cc2)nc1N1CCc2ccccc2C1C` (stereo not drawn) [Example 139, 5-methyl-6-(N-t-butoxycarbonyl-glycyloxymetyl)-2-(4-fluorophenylamino)-4-(1-methyl-1,2,3,4-tetrahydroisoquinolin-2-yl)pyrimidine], for which, in assay [1], the Relative conc. is reported as 0.75, the Relative volume is reported as 1.01 and the “Relative Acid Output” value worked out at 1.01.
Regarding `CCC(=O)OCc1nc(Nc2ccc(F)cc2)nc(N2CCc3ccccc3C2C)c1C` (stereo not drawn) [Example 51, 5-methyl-6-ethylcarbonyloxymethyl-2-(4-fluorophenylamino)-4-(1-methyl-1,2,3,4-tetrahydroisoquinolin-2-yl)pyrimidine], in assay [1], the Relative conc. was 1.02, the Relative volume turned out to be 1.09 and the “Relative Acid Output” value amounted to 1.06.
Regarding `Cc1c(COC(=O)CN2CCCCC2)nc(Nc2ccc(F)cc2)nc1N1CCc2ccccc2C1C.Cl.Cl` (stereo not drawn) [Example 181, 5-rethyl-6-(1-piperidineacetoxymethyl)-2-(4-fluorophenylamino)-4-(1-methyl-1,2,3,4-tetrahydroisoquinolin-2-yl)pyrimidine dihydrochloride], in assay [1], the Relative conc. is recorded as 0.16, the Relative volume is recorded as 0.99 and the “Relative Acid Output” value was 0.80.
With `Cc1c(COC(=O)C(C)C)nc(Nc2ccc(F)cc2)nc1N1CCc2ccccc2C1C` (stereo not drawn) [Example 52, 5-methyl-6-isopropylcarbonyloxymethyl-2-(4-fluorophenylamino)-4-(1-methyl-1,2,3,4-tetrahydroisoquinolin-2-yl)pyrimidine], in assay [1], the Relative conc. stood at 0.88, the Relative volume was determined as 0.86 and the “Relative Acid Output” value came out at 0.96.
Take `CC(=O)OCc1nc(Nc2ccc(F)cc2)nc(N2CCc3ccccc3C2C)c1C` (stereo not drawn) [Example 50, 5-methyl-6-acetoxymethyl-2-(4-fluorophenylamino)-4-(1-methyl-1,2,3,4-tetrahydroisoquinolin-2-yl)pyrimidine]: in assay [1], the Relative conc. was found to be 0.77, the Relative volume came to 1.01 and the “Relative Acid Output” value is reported as 0.98.
Take `Cc1c(COC(=O)C2CC2)nc(Nc2ccc(F)cc2)nc1N1CCc2ccccc2C1C` (stereo not drawn) [Example 54, 5-methyl-6-cyclopropylcarbonyloxymethyl-2-(4-fluorophenylamino)-4-(1-methyl-1,2,3,4-tetrahydroisoquinolin-2-yl)pyrimidine]: in assay [1], the Relative conc. is listed as 0.79, the Relative volume amounted to 0.79 and the “Relative Acid Output” value is listed as 0.95.
As for `Cc1c(COC(=O)[C@@H](N)C(C)C)nc(Nc2ccc(F)cc2)nc1N1CCc2ccccc2C1C.Cl.Cl` (stereo partly drawn) [Example 171, 5-methyl-6-valyloxymethyl-2-(4-fluorophenylamino)-4-(1-methyl-1,2,3,4-tetrahydroisoquinolin-2-yl)pyrimidine dibydrochloride], in assay [1], the Relative conc. is given as 1.42, the Relative volume amounted to 1.46 and the “Relative Acid Output” value came to 1.33.
Consider `Cc1c(COC(=O)[C@@H](N)Cc2ccccc2)nc(Nc2ccc(F)cc2)nc1N1CCc2ccccc2C1C.Cl.Cl` (stereo partly drawn) [Example 172, 5-methyl-6-(phenylalanyloxymethyl)-2-(4-fluorophenylamino)-4-(1-methyl-1,2,3,4-tetrahydroisoquinolin-2-yl)pyrimidine dihydrochloride], for which, in assay [1], the Relative conc. is 1.33, the Relative volume is on record as 1.48 and the “Relative Acid Output” value is 1.34.
On to `COc1ccc2[nH]c([S+]([O-])Cc3ncc(C)c(OC)c3C)nc2c1` (stereo not drawn) [Omeprazole, omeprazole, reference compound], for which, in assay [3], the IC50 was 11100 nM.
For `Cc1c(COC(=O)C(Cc2cn(Cc3ccccc3)cn2)NC(=O)OC(C)(C)C)nc(Nc2ccc(F)cc2)nc1N1CCc2ccccc2C1C` (stereo not drawn) [Example 144, 5-methyl-6-(N-t-butoxycarbonyl-Im-benzyl-histidyloxymethyl)-2-(4-fluorophenylamino)-4-(1-methyl-1,2,3,4-tetrahydroisoquinolin-2-yl)pyrimidine], in assay [1], the Relative conc. amounted to 0.80, the Relative volume worked out at 0.90 and the “Relative Acid Output” value worked out at 0.94.
For `Cc1nc(Nc2ccc(F)cc2)nc(N2CCc3c(O)ccc(O)c3C2C)c1C.Cl` (stereo not drawn) [Example 43, 5,6-dimethyl-2-(4-fluorophenylamino)-4-(5,8-dihydroxy-1-methyl-1,2,3,4-tetrahydroisoquinolin-2-yl)pyrimidine hydrochloride], in assay [2], the Effect ratio is listed as 61.7. Also, the IC50 in assay [3] is 180 nM.

These data come from patent US6352993B1, “Pyrimidine derivatives and processes for the preparation thereof” (Yuhan Corporation, priority 1997, dated 2002).
